Here are results for 4 compounds from patent publication US11390437B2, “Pharmaceutical formulation” (priority 2002, dated 2022).

“Also recorded” adds a separate entry of the source.

Series [1] can be described thus: Absorption (AUC) by route of administration, Example 3. The following applies: after oropharyngeal (buccal) versus sublingual administration.
Series [2] can be described thus: Cannabinoid uptake in patients, drops applied sublingually. The settings on record: sublingual drops, dose approx 20 mg of each cannabinoid; for Cmax / AUC(0-t): human, plasma; for AUC(0-t): read-out: AUC 0-12. It is filed as in vivo, human. Here is the method:
Initially the applicant looked at cannabinoid uptake in patients by applying drops sublingually (BDS dissolved in a mixture of a glycerol/propylene glycol and ethanol) THC 5 mg/ml, CBD 5 mg/ml and THC/CBD 5 mg/ml plus 5 mg/ml.
The results are noted in Table 3 below:
The proportion of 11 hydroxy tetrahydro cannabinol to THC (AUC 0-12) was about 1.9 indicating a significant amount of oral ingestion may have occurred.
(§1) The data obtained is illustrated in FIGS. 1a, 1b and 2, which show the mean plasma concentrations for the formulations identified with reference to Tables 3 and 4.

Series [3] in a line: Cannabinoid uptake, pump action sublingual spray. It is filed as in vivo, human. The settings on record: dose approx 21 mg THC and 35 mg CBD; for Cmax / AUC(0-t): human, plasma; for AUC(0-t): read-out: AUC 0-12. As to the method: On moving to a pump action sublingual spray (following problems solubilising cannabinoids with hydrofluorocarbon propellant systems) the applicant obtained the results noted in Table 4. The solvent system comprised 50:50 ethanol to propylene glycol (v/v ratio) with THC 25 mg/ml; CBD 50 mg/ml and THC/CBD 25 mg/ml plus 50 mg/ml respectively.
The proportion of 11 hydroxy tetrahydro cannabinol to THC (AUC 0-12) was about 1.6. The profile for each cannabinoid was similar irrespective of the formulation (THC, CBD, THC plus CBD).
as §1
That effective delivery of the cannabinoids can be achieved in a vehicle consisting of ethanol and propylene glycol is illustrated by the plasma levels shown in FIGS. 1a, 1b and 2. These show, respectively, formulations containing the high THC and high CBD formulations in FIGS. 1a and 1b. Similarly, the effectiveness of a defined ratio formulation THC:CBD 1:1 is illustrated in FIG. 2.

A short description of series [4]: Effect of light on stability of methanolic CBME solutions, HPLC. Format: physicochemical. The settings on record: for residual compound: amber glass protected, 112 days. The text has this: Experiments were set up to follow the effects of white light on the stability of methanolic solutions of THC, CBD or THCV. Following preliminary knowledge that light of different wavelengths may have differing effects on compound stability (viz. tretinoin is stable only in red light or darkness), samples were wrapped in coloured acetate films or in light exclusive foil. A concurrent experiment used charcoal treated CBME to study the effects of the removal of plant pigments on the degradation process.
Cannabinoids: 1 mg/ml solutions of CBME were made up in AR methanol. Methanolic solutions of CBME (100 mg/ml) were passed through charcoal columns (Biotage Flash 12AC 7.5 cm cartridges, b/no. 273012S) and were then diluted to 1 mg/ml. Solutions were stored in soda-glass vials, which were tightly screw capped and oversealed with stretch film. Tubes were wrapped in coloured acetate films as follows:
Solutions were also filled into the amber glass U-save vials; these were sealed with a septum and oversealed. One tube of each series of samples was tightly wrapped in aluminium foil in order to completely exclude light. This served as a “dark” control to monitor the contribution of ambient temperature to the degradation behaviour. All of the above tubes were placed in a box fitted with 2×40 watt white Osram fluorescent tubes. The walls of the box were lined with reflective foil and the internal temperature was monitored at frequent intervals.
A further tube of each series was stored at −20° C. to act as a pseudo to the reference sample; in addition, one tube was exposed directly to light without protection. Samples were withdrawn for chromatographic analysis at intervals up to 112 days following the start of the study. The study was designated AS01201/AX282.
(§2) Samples of the test solutions were withdrawn and diluted as appropriate for HPLC and TLC analysis. HPLC was carried out in accordance with TM GE.004.V1 (SOPam058). TLC was performed on layers on Silica gel (MN SilG/UV) in accordance with TM GE.002.V1 (SOPam056).
The results from the HPLC analysis of samples drawn from the stored, light exposed solutions, are plotted and presented as FIGS. 6 and 6a (THC before and after charcoal treatment), and FIGS. 7 and 7a (CBD before and after charcoal treatment).

The conditions of series [5]: postural hypotension in naïve patients, hypertension reported on prolonged usage; cited from earlier work.
The conditions of series [6]: THC alone versus same quantity of THC as Cannabis extract; cited from earlier work.
For series [7] the following is noted: CNS effect; Carlini et al, 1973; cited from earlier work.
Series [8] in a line: Effect of light on stability, TLC qualitative analysis. It is filed as physicochemical. Here is the method: as §2
The evaluation of the light degraded solutions using thin layer chromatography, used both the existing normal phase system (i.e. Silica stationary phase and hexane/diethyl ether as mobile phase) and two additional systems, capable of resolving more polar or polymeric products formed during the degradation processes.
At the same time, there was an increase in the intensity of Fast Blue B staining material running at, or close to, the origin.

Series [9] is described as follows: Relative thermo-oxidative stability. The settings on record: THC versus CBD.
The nature of series [10]: Reports of subjects taking THCV. The settings on record: compared with THC.

On to `CCCCCc1cc(O)c2c(c1)OC(C)(C)[C@@H]1CCC(CO)=C[C@@H]21` [11-OH THC, 11 hydroxy tetrahydro cannabinol], for which, in series [1], the “reduction in the amount of 11-hydroxy metabolite detected” value is listed as “approximately 25%”.
As for `C=C(C)[C@@H]1CCC(C)=C[C@H]1c1c(O)cc(CCCCC)cc1O` [CBD, cannabidiol], the Cmax in [2] stood at 2 ng/mL; in [3], 8 ng/mL. Besides, the AUC(0-t) in [2] was about 8 ng·h/mL; in series [3], about 22 ng·h/mL. Further, the “Plasma levels after 6 hours” value in series [2] was about 0.5 ng/mL; in series [3], “Plasma levels after 6 hours were about 1 ng/ml THC and 1 ng/ml CBD”. Moreover, the residual compound entry in [4] (after charcoal treatment) is listed as “approximately 64%”; in series [4] (without charcoal clean up), about 38%. In addition, the “relative stability under photochemical stress” value in [4] (light exposed methanolic CBME solutions) is on record as “significantly more sensitive to the effects of light than is THC; also recorded: markedly less stable than THC”. In addition, in series [4] (no charcoal treatment, all light exposures except amber glass, foil and −20° storage, 1 mg/ml CBME in methanol), the “time to degradation to non-detectable levels” value was under 40 days.
Regarding `CCCCCc1cc(O)c2c(c1)OC(C)(C)[C@@H]1CCC(C)=C[C@@H]21` [THC, Δ^9-tetrahydrocannabinol], the “effect on blood pressure” value in series [5] is “§ THC has a biphasic effect on blood pressure; in naïve patients it may produce postural hypotension and it has also been reported to produce hypertension on prolonged usage”. For the same compound, the “degree of pain relief” value in series [6] is on record as “lower degree of pain relief than the same quantity of THC given as an extract of Cannabis”. Moreover, in [2], the concentration peaked (Cmax) at 6 ng/mL, the AUC(0-t) was about 16 ng·h/mL and the “Plasma levels after 6 hours” value is about 1 ng/mL. Besides, the Anticonvulsant result in [7] was “† THC is pro convulsant”. Also, in series [3], the “Plasma levels after 6 hours” value was “Plasma levels after 6 hours were about 1 ng/ml THC and 1 ng/ml CBD”; the highest level (Cmax) was 6 ng/mL; the AUC(0-t) is about 16 ng·h/mL. Besides, the “stability of charcoal treated versus untreated extract” value in series [4] (all solutions except those stored in the dark and at −20° C.) is “significant improvements to the stability”. In addition, in series [8] (day 112, all colour filtered lights, hexane/diethyl ether system), the TLC spot intensity entry was “reduction in the intensity”. Moreover, the TLC spot intensity entry in [8] (day 112, foil protected solution) is listed as “none of these effects”. Besides, in series [9], the relative thermo-oxidative stability result is listed as “less stable”.
In the case of `CCCc1cc(O)c2c(c1)OC(C)(C)[C@@H]1CCC(C)=C[C@@H]21` [THCV, Δ^9-tetrahydrocannabinol propyl analogue], in series [10], the hangover entry is recorded as “less severe hangover” and the “mood enhancement as reported by subjects” value is given as “less disturbing than that produced by THC”.
